From publication PMC5898002, “Overexpression of a type III PKS gene affording novel violapyrones with enhanced anti-influenza A virus activity” (Microbial Cell Factories, 2018)

Columns and labels:
[1] = tested on: influenza virus A/PR8/34 (H1N1); assay: microbe, parasite or virus in culture; type: cell-based; details: MDCK cells, MOI = 1.0 (table footnote), 48 h post-infection, mean of n = 4, read-out: IC50: concentration required to inhibit influenza virus A/PR8/34 (H1N1) yield at 48 h post-infection by 50%
[2] = cytotoxicity in MDCK cell by MTT assay; details: dog, MDCK cells, CC50: concentration required to reduce MDCK cell viability by 50%, mean of n = 3
MDCK cells = details: dog, 48 h
in vitro = details: dog, CC50: concentration required to reduce MDCK cell viability by 50%

SMILES	IC50 [1]	CC50 at 48 h [2]	CC50 (MDCK cells)	CC50 at 48 h (in vitro)
CCCCCCCc1cc(O)c(C)c(=O)o1 [Compound 11, VLP I]	113 µM	2200 µM	–	–
CCC(C)CCCCc1cc(O)c(C)c(=O)o1 (stereo not shown) [Compound 13, VLP C]	107 µM	1620 µM	–	–
Cc1c(O)cc(CCCCC(C)C)oc1=O [Compound 10, Violapyrone B]	> 200 µM	–	> 1500 µM	> 1400 µM
NC(=O)c1ncn([C@@H]2O[C@H](CO)[C@@H](O)[C@H]2O)n1 [Ribavirin, reference compound]	113 µM	1520 µM	–	–
CCc1c(O)cc(CCCCC(C)C)oc1=O [Compound 12, VLP P]	26.9 µM	1570 µM	–	–
Cc1c(O)cc(CCCCCC(C)C)oc1=O [Compound 14, VLP H]	28.8 µM	1450 µM	–	–
